Tests used:
rOCT2 (slc22a2) = molecular target: T1, rOCT2 (slc22a2) (Rattus norvegicus, UniProt Q9R0W2); assay: cell free electrophysiological sensor chip assay, inhibition of choline-induced current, rOCT2 CHO cell membranes; assay type: biochemical; details: 10 mM choline as substrate, pH 7.4, read-out: IC50 of TBA of rOCT2
T1 construct: expressed in transfected cells; host or cells: CHO cells, stably transfected; membrane fragments immobilised on the sensor chip
T1 sequence (Q9R0W2 with tags, fused parts or gaps limits assumed): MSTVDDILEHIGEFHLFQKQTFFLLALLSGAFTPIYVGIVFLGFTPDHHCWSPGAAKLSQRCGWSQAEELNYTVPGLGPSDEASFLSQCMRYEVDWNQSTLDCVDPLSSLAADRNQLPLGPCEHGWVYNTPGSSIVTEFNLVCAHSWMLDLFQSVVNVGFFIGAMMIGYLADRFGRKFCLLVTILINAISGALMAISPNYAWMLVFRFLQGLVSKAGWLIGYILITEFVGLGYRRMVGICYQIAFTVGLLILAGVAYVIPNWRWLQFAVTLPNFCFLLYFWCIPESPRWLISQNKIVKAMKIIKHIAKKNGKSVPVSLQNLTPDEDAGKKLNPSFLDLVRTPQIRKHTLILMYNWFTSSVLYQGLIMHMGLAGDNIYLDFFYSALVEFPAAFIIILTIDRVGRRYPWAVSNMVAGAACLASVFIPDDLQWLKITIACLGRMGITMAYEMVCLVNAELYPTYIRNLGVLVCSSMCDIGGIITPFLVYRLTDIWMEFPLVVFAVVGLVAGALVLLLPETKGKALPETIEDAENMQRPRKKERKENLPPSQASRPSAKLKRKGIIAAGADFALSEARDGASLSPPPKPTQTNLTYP
Protocol: IC50 was determined using 10 mM choline as a substrate.
(§1) After harvesting the cells from a virally transfected Sf9 or HighFive suspension cell line or an stably transfected adherent CHO cell line via centrifugation, aliquots of approx. 2 g wet weight cells were quick-frozen in liquid nitrogen and stored at −80° C. for further preparation.
(§2) The membrane fragments were prepared by cell rapture. Cells were homogenized by the nitrogen cell disruption method utilizing a Parr Cell Disruption Bomb (Parr Instrument Company, Illinois, USA) or the Dounce homogenisation method utilizing a Dounce Homogenisator (7 ml from Novodirect GmbH, Kehl/Rhein, Germany) and the suspension centrifuged 10 min at 4° C. and 680 g and 10 min at 4° C. and 6100 g. The supernatants were collected and again centrifuged for 1 h at 4° C. and 100,000 g in SW41 swing-out rotor.
(§3) Biosensors were prepared according to the following protocol. • 1. Addition of 30 μl mercaptane solution (2% mercaptane in isopropanol) to biosensor • 2. Incubation time: 15 min • 3. Rinsing with 3×70 μl isopropanol • 4. Vacuum dry biosensor • 5. Drying time: 30 min • 6. […]
(§4) For the determination of its activity, the OCT protein was treated consecutively with a washing, non-activating and activating solution and the electrical current was measured when changing from charging to activating treatment. […]

hOCT2 (SLC22A2) = molecular target: T2, hOCT2 (SLC22A2) (Homo sapiens, UniProt O15244, S270A); assay: cell free electrophysiological sensor chip assay, inhibition of choline-induced current, hOCT2 CHO cell membranes; assay type: biochemical; details: 30 mM choline as substrate (FIG. 4B legend), pH 7.4, read-out: IC50 of TBA of hOCT2
T2 construct: expressed in transfected cells; host or cells: CHO cells, stably transfected; membrane fragments immobilised on the sensor chip
T2 sequence (O15244 1-555 S270A): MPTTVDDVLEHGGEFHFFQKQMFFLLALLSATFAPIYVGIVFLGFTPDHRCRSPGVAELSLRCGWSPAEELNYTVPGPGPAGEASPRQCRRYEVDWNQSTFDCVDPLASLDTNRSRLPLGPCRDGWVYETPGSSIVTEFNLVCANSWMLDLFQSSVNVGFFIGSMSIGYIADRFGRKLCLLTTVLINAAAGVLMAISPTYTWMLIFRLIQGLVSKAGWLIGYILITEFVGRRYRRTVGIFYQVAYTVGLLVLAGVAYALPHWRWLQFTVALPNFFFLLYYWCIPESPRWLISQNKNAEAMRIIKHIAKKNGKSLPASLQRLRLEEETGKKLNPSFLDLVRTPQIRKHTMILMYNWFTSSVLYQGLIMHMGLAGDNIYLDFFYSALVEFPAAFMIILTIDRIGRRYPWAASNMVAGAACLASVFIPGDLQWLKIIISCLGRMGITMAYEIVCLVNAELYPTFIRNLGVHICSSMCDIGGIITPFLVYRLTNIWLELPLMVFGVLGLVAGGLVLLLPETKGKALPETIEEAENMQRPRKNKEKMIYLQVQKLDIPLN
Protocol: IC50 was determined using 30 mM choline as a substrate.
as §1, §2, §3, §4

CCCC[N+](CCCC)(CCCC)CCCC [TBA]
IC50 (rOCT2 (slc22a2)): 3.5 µM | IC50 (hOCT2 (SLC22A2)): 2.9 µM
